Consider 1 compound from patent US20110171332A1, “LEUCOJUM BULB EXTRACTS AND USE THEREOF” (I.B.R. ISRAELI BIOTECHNOLOGY RESEARCH LTD., priority 2008, published 2011).

This test relates to nerve-muscle co-culture. The test can be described thus: Muscle contraction frequency in nerve-muscle co-culture. The class given is cell-based, human, rat. Conditions: carisoprodol 5×10^−3M; for Contraction (%): % of contractions at T0; for Contraction (%) / Result: single wells. How it is done: The nerve-muscle co-culture model is a model suited to studying the influence of a substance on a muscle contraction frequency. The number of muscular contractions is counted during a given time, before and after applying the examined substance to the co-culture. The number of contractions in the presence of the substance is expressed in percentage compared to the initial number of contractions. An inhibitory effect on muscle contraction is determined if a significant reduction or blocking of the muscular contraction frequency is observed in at least 2 wells out of 3 wells containing the nerve-muscle co-culture.
Human muscular cells were seeded in 24-wells culture plates. Cells were incubated at 37° C., 5% CO2 during the entire culture duration.
After 5 days of culture, spinal cords were isolated from rat embryos, and were cut in small parts (explants). One explant per culture well was placed on the muscular cells, and both cell types were cultivated in 24-wells plate for 21 days.
During the cultivation period, the muscular cells merge and form muscular fibers. The motor neurons present in the spinal cord emit nervous extensions which contact the muscular fibers. Neuro-muscular junctions are formed and muscular contractions appear.
After 21 days of co-culture, the model was mature and functional. The muscular fibers innervated spontaneously and contracted in a regular way.
A stock solution of the test extract was prepared in the culture medium. This solution was applied to the nerve-muscle culture.
The culture medium alone served as a negative control.
The positive control was carisoprodol, a drug which blocks the muscular contraction in a reversible way. A stock solution of carisoprodol was prepared in DMSO at 1M. This solution was diluted at 1/200 into the culture medium (final concentration of 5×10^−3M). Three culture wells were used per treatment (control/test extract).
The trial started at the 21st day of the culture.
The microscope is equipped with a motorized stage piloted by a LUCIA software. It is also combined with a camera and connected to a computer allowing the recording of video sequences.
For each selected culture well, a muscle fiber showing regular contractions is referenced. The XY data of this fiber were registered using the LUCIA software. The frequency of the contractions of this fiber was manually counted during 30 seconds, and a video sequence was recorded (T0). The same operation was carried out for all wells.
The test extract and the references were applied to the nerve-muscle culture, and the trial system was incubated at 37° C., 5% CO2.
After 2 hours, 6 hours and 24 hours of incubation, the contraction frequency was counted again during 30 seconds and a video sequence was also recorded for each counting.
For each culture well, the number of muscular contractions counted in the presence of the examined extract is expressed in percentage compared to the number of contractions counted before extract application (T0).
When the frequency of contractions is in the range of between 80%-120% compared to T0, the modulation of the muscular contractions frequency is not considered as significant. This range is based on the fact that during the time, the muscular contraction frequency can vary slightly, independent on the conditions applied.
The results are expressed as follows: • No significant variation in the muscular contractions frequency: contractions percentage between 80 and 120%, symbolized by (=) • A significant reduction in the muscular contractions frequency: contractions percentage <80%, symbolized by (−). • Blocking of the muscular contractions frequencies: contractions percentage=0%, symbolized by (0) • A significant increase in the muscular contractions frequencies: contractions percentage >120%, symbolized by (+).
The product effect is assessed only if the same result is obtained in at least 2 out of 3 culture wells (i.e. 2 out of 3 muscle fibers).

`CCCC(C)(COC(N)=O)COC(=O)NC(C)C` (stereo not shown) [Carisoprodol, carisoprodol]: the conclusion entry was “Blocked” (2 h incubation); “complete blockage” (2 h incubation, listed as carisoprodol); “Blocked” (6 h incubation); “complete blockage” (6 h incubation, listed as carisoprodol); “Blocked” (24 h incubation); “complete blockage” (24 h incubation, listed as carisoprodol). Moreover, the “Contraction (%)” value is, setting by setting: (2 h incubation) 0%; (6 h incubation) 0%; (24 h incubation) 0%. Further, the Result by setting is: (2 h incubation) 0 (Blocking of the muscular contractions frequencies: contractions percentage=0%); (6 h incubation) 0 (Blocking of the muscular contractions frequencies: contractions percentage=0%); (24 h incubation) 0 (Blocking of the muscular contractions frequencies: contractions percentage=0%). For the same compound, the “reversibility of the effect on muscle contractions after rinsing off” value (after rinsing off) was “reversible”.
